From US9341627B2, “Protein structural biomarkers to guide targeted chemotherapies” (priority 2009, dated 2016) come the findings set out here.

Assay [1] concerns the target T1, wildtype Eg5 kinesin motor domain (Homo sapiens, UniProt P52732).
T1 sequence (P52732 1-370): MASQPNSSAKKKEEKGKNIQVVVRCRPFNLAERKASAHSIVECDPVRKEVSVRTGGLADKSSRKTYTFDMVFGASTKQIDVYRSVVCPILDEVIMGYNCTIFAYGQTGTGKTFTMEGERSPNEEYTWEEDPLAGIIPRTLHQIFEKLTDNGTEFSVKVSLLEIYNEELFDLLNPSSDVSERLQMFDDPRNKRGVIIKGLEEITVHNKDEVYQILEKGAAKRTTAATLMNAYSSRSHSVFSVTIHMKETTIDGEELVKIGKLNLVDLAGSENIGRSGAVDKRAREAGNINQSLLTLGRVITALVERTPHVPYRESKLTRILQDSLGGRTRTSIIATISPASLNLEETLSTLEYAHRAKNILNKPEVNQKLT
Briefly: In vitro basal ATPase assay (coupled enzymatic), wildtype Eg5. The class given is biochemical. The following applies: 5 μM motor protein, 1 mM MgATP, 5-22.5 mM NaCl, read-out: IC50, basal ATP hydrolysis.
Experimental: (§1) Basal ATPase activities were measured with a coupled enzymatic assay as previously described (29) with 5 μM motor protein and 1 mM MgATP in a SpectraMax 2E spectrophotometer for high-throughput kinetic measurements as previously described (30). […] Reactions used for calculation of the IC50 values contained between 5 and 22.5 mM NaCl. Data were reproducible with protein samples purified from differing batches of cultured cells from two different laboratories.

The test system of assay [2] is Eg5 E116, D130 and A133 mutants. The following applies: all E116, D130 and A133 mutants, to varying degrees.
Experimental: as §1

Usually IC50 stands for the concentration needed to halve the response being measured.

As for `CCOC(=O)C1=C(C)NC(=S)NC1c1cccc(O)c1` (centres unmarked) [monastrol], the IC50 in assay [1] stood at 8 µM.
Take `N[C@@H](CSC(c1ccccc1)(c1ccccc1)c1ccccc1)C(=O)O` [STC, S-trityl-L-cysteine]: the “sensitivity of mutants to inhibitor” value in assay [2] is listed as “reduced sensitivity”.
